From ChEMBL document CHEMBL1201862, “PubChem BioAssay data set” (2004) come the findings set out here.

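Briefly, cells in 96-well plates were exposed to five compound concentrations for 48 h, and endpoints were estimated by linear interpolation. GI50 marks 50% less growth.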 The source made the active and inactive calls. No stated cut-off is given here; in the data, active = GI50 up to about 1.1 µM and inactive = higher.

Holding throughout (experiment): NCI anticancer screen, dose series, 48 h
The test system of experiment [1] is HOP-92.
For experiment [2], the system named is SNB-75.
Experiment [3] relates to HOP-62.
For experiment [4], the system named is OVCAR-4.
In experiment [5] the test system is SK-OV-3.
Experiment [6] has as its system NCI-H23.
Experiment [7] concerns SK-MEL-2.
In experiment [8] the test system is SK-MEL-5.
For experiment [9], the system named is NCI-H226.
In experiment [10] the test system is MOLT-4.
Experiment [11] relates to CCRF-CEM.
The test system of experiment [12] is HT-29.
In experiment [13] the test system is HCT-15.
Experiment [14] concerns HCT-116.
For experiment [15], the system named is SK-MEL-28.
For experiment [16], the system named is OVCAR-3.
The test system of experiment [17] is SF-268.

In the case of `COc1cc2ccnc3c2c(c1OC)CC1CC(O)C(OC)CC31` (configuration not stated), the GI50 in experiment [1] was 14.7 µM (inactive); in [2] it was > 100 µM (inactive); in [3], 26.6 µM (inactive); in experiment [4], > 100 µM (inactive); in [5] it was > 100 µM (inactive); in experiment [6] it was 47.5 µM (inactive). Besides, the GI50 in [7] was > 100 µM (inactive); in experiment [8], 38.4 µM (inactive); in experiment [9], 96.4 µM (inactive); in experiment [10], 33.3 µM (inactive); in experiment [11], 78.3 µM (inactive); in experiment [12] it was 46.5 µM (inactive). Also, the GI50 in [13] is 63.8 µM; in experiment [14], 38.7 µM (inactive); in experiment [15], 22.7 µM (inactive); in experiment [16], 82.2 µM (inactive).

With `CN(C)NC(=O)/C(=C/c1ccc(Cl)cc1)NC(=O)c1ccccc1`, the GI50 is > 100 µM (inactive) in [1]; 78 µM (inactive) in experiment [2]; > 100 µM (inactive) in experiment [3]; > 100 µM (inactive) in experiment [4]; > 100 µM (inactive) in experiment [5]; > 100 µM (inactive) in [6]. Besides, the GI50 in experiment [7], in [8], in [9], in [10], in [11] and in experiment [12] was > 100 µM (inactive) throughout. Besides, the GI50 in experiment [13] was 32 µM; in [17], > 100 µM (inactive); in experiment [14], > 100 µM (inactive); in [15] it was > 100 µM (inactive); in experiment [16], > 100 µM (inactive).

As to `COC(=O)c1cc2c3c(ccc2[nH]1)N(C(=O)c1cc2c4c(ccc2[nH]1)N(C(=O)c1cc2c5c(ccc2[nH]1)N(C(N)=O)CC5)CC4)CC3`, the GI50 in [1] is 2.03 µM (inactive); in experiment [2] it was 2.11 µM (inactive); in experiment [3], 2.29 µM (inactive); in experiment [4] it was 3.55 µM (inactive); in [5] it was 2.1 µM (inactive); in experiment [6], 2.94 µM (inactive). The GI50 is 3.18 µM (inactive) in [7]; 2.07 µM (inactive) in experiment [8]; 1.71 µM (inactive) in experiment [9]; > 23 µM (inactive) in experiment [10]; 4.58 µM (inactive) in experiment [11]; 6.58 µM (inactive) in experiment [12]. Moreover, the GI50 is 12 µM in experiment [13], 2.17 µM (inactive) in [17], 2.24 µM (inactive) in experiment [14] and 3.9 µM (inactive) in experiment [16].

Turning to `Cc1ccc(C(=O)C(C)N)cc1` (configuration not stated), the GI50 in [1], in experiment [2], in [3], in experiment [4], in experiment [5] and in [6] was > 100 µM (inactive) throughout. Further, the GI50 in experiment [7], in experiment [8], in [9], in experiment [10], in [11] and in [12] was > 100 µM (inactive) in each case. The GI50 in experiment [13] was more than 100 µM; in [17], > 100 µM (inactive); in [14], > 100 µM (inactive); in [15] it was > 100 µM (inactive); in experiment [16], > 100 µM (inactive).

As to `CC1(C)O/C(=C\c2ccccc2)C(=O)/C(=C/c2ccccc2)O1`, the GI50 in [1] is 29.9 µM (inactive); in [2], 31.6 µM (inactive); in experiment [3] it was 74.8 µM (inactive); in [4] it was 56.6 µM (inactive); in experiment [5], 72.6 µM (inactive); in [6], 20 µM (inactive). Moreover, the GI50 is 18.4 µM (inactive) in experiment [7]; 14.4 µM (inactive) in experiment [8]; 17.7 µM (inactive) in experiment [9]; 14.7 µM (inactive) in experiment [10]; 15.8 µM (inactive) in experiment [11]; 29.4 µM (inactive) in [12]. For the same compound, the GI50 in [17] is 57.4 µM (inactive); in experiment [14], 26.4 µM (inactive); in experiment [15], 50.4 µM (inactive); in [16], 27.1 µM (inactive).

Regarding `Cc1nc(N)nc(N)c1CCCCc1ccc(N)cc1`, the GI50 is 3.93 µM (inactive) in experiment [1]; 11.9 µM (inactive) in [2]; 5.11 µM (inactive) in [3]; 10.6 µM (inactive) in experiment [4]; 2.88 µM (inactive) in [5]; 4.37 µM (inactive) in experiment [6]. Besides, the GI50 was 9.06 µM (inactive) in experiment [7]; 3.43 µM (inactive) in [8]; 25.8 µM (inactive) in experiment [9]; 1.58 µM (inactive) in experiment [10]; 3.01 µM (inactive) in experiment [11]; 0.729 µM (active) in [12]. The GI50 in experiment [13] was 4.09 µM; in experiment [17] it was 0.995 µM (active); in experiment [14] it was 0.569 µM (active); in experiment [15], 10.1 µM (inactive); in experiment [16] it was 5.53 µM (inactive).

For `COc1cc(C2(C)SCCCS2)cc(OC)c1OC`, the GI50 in experiment [1], in experiment [2], in [3], in experiment [4], in experiment [5] and in [6] was > 100 µM (inactive) throughout. The GI50 in experiment [7], in experiment [8], in experiment [9], in experiment [10], in experiment [11] and in experiment [12] was > 100 µM (inactive) throughout. The GI50 in [13] is more than 100 µM; in [17], > 100 µM (inactive); in experiment [14], > 100 µM (inactive); in [15], > 100 µM (inactive); in [16], > 100 µM (inactive).

For the compound `CCCOc1ccc(/C=C/c2cc(OC)c(OC)c(OC)c2)cc1`, the GI50 is 0.347 µM (active) in experiment [1]; 0.266 µM (active) in experiment [2]; 0.265 µM (active) in experiment [3]; 0.971 µM (active) in experiment [4]; 0.23 µM (active) in [6]; 0.822 µM (active) in [7]. The GI50 is 0.144 µM (active) in [8]; 0.373 µM (active) in [9]; 0.443 µM (active) in [10]; 0.324 µM (active) in [11]; 0.272 µM (active) in experiment [12]; 0.348 µM in experiment [13]. The GI50 is 0.618 µM (active) in experiment [17], 0.552 µM (active) in experiment [14], 8.75 µM (inactive) in experiment [15] and 0.146 µM (active) in experiment [16].

`COC(=O)C1CC(C(=O)OC)c2nc3cc(C)ccc3nc21` (configuration not stated): the GI50 in experiment [1], in experiment [2], in experiment [3], in experiment [4], in experiment [5] and in experiment [6] was > 100 µM (inactive) each time. In addition, the GI50 is > 100 µM (inactive) in experiment [7]; > 100 µM (inactive) in experiment [8]; > 100 µM (inactive) in experiment [9]; > 100 µM (inactive) in experiment [10]; > 100 µM (inactive) in [11]; 62.7 µM (inactive) in [12]. Further, the GI50 in experiment [13] was more than 100 µM; in experiment [17], > 100 µM (inactive); in experiment [15], > 100 µM (inactive); in experiment [16] it was > 100 µM (inactive).

Consider `COC(=O)C(C(=O)C(=O)Nc1ccc(C)cc1C)c1nc2ccc([N+](=O)[O-])cc2nc1O` (configuration not stated), for which the GI50 in experiment [1], in experiment [2], in experiment [3], in [4], in [5] and in experiment [6] was > 100 µM (inactive) throughout. Moreover, the GI50 in experiment [7] is > 100 µM (inactive); in experiment [8] it was > 100 µM (inactive); in [9] it was > 100 µM (inactive); in experiment [10] it was > 100 µM (inactive); in experiment [11], 71.4 µM (inactive); in experiment [12], > 100 µM (inactive). The GI50 in experiment [13] is more than 100 µM; in experiment [17], > 100 µM (inactive); in [14], > 100 µM (inactive); in experiment [15], > 100 µM (inactive).

Take `Oc1ccc(-c2n[nH]c(S)n2)cc1`: the GI50 in experiment [1] is > 100 µM (inactive); in [2], 87.5 µM (inactive); in experiment [3] it was > 100 µM (inactive); in experiment [4] it was > 100 µM (inactive); in experiment [5], > 100 µM (inactive); in experiment [6], > 100 µM (inactive). For the same compound, the GI50 in [7], in experiment [8], in [9], in experiment [10], in [11] and in experiment [12] was > 100 µM (inactive) in each case. In addition, the GI50 in experiment [13] was more than 100 µM; in experiment [17] it was > 100 µM (inactive); in [14], > 100 µM (inactive); in [15], > 100 µM (inactive); in [16], > 100 µM (inactive).

On to `Cc1cc(N(CCC#N)CCC#N)ccc1/C=C1\N=C(c2cc([N+](=O)[O-])ccc2Cl)N(NC(=O)c2ccc(/N=C\c3ccc(N(CCC#N)S(C)(=O)=O)cc3C)cc2)C1=O`, for which the GI50 in experiment [1] is 98.9 µM (inactive); in [2], > 100 µM (inactive); in experiment [3] it was 63.5 µM (inactive); in experiment [4], > 100 µM (inactive); in experiment [5] it was > 100 µM (inactive); in experiment [6] it was > 100 µM (inactive). Besides, the GI50 in experiment [7] was > 100 µM (inactive); in experiment [8], 38.2 µM (inactive); in experiment [9] it was > 100 µM (inactive); in [11], 76.4 µM (inactive); in experiment [12] it was 54.5 µM (inactive); in experiment [13], 33 µM. Also, the GI50 in experiment [17], in experiment [14], in experiment [15] and in [16] was > 100 µM (inactive) throughout.
